Data published in US12528792B2, “Sulfonamide compounds and the use thereof in the treatment of cancer” (TROBIO THERAPEUTICS PTY LTD, priority 2019, dated 2026).

What was measured:
[1] = system: A549 (NSCLC) cells; assay: Anti-proliferative activity, Cell-Titre luminescent viability assay; assay type: cell-based; settings: Homo sapiens, 72 h exposure, Cell-Titre luminescent reagent
Protocol: (§1) The ability of compounds of the disclosure to inhibit the proliferation of cancer cells representative of non-small cell lung cancer and ovarian cancer (Table 1), and pancreatic cancer, colorectal cancer and prostate cancer (Table 2) was assessed. Briefly, a predetermined number of cells as calculated from cell growth assays for each of the cell lines employed were seeded into their respective culture medium (using ATCC culture parameters—http://www.atcc.org) and cultured for 24 h at 37° C. and 5% CO2 in 96-well culture plates. Once attached, each cell line was then exposed to various concentrations of each respective analogue (100, 30, 10, 3, 1 and 0.3 µM or 30, 10, 3, 1, 0.3 and 0.1 μM), cultured for a further 72 h and exposed to Cell-Titre luminescent reagent (100 μL/well) for a further 30 min. Luminescence was captured using an EnVision multilabel reader and the data for each analogue concentration compared against no treatment control. Cell viability was normalised to control (vehicle alone) and dose response curves, and half maximal effective concentration (EC50) values were determined using Graph Pad Prism 6 (nonlinear regression sigmoidal dose-response variable slope).

[2] = system: A2780 (ovarian) cells; assay: as above; assay type: cell-based; settings: Homo sapiens, 72 h exposure, Cell-Titre luminescent reagent
Protocol: as §1

IC50 [1]	IC50 [2]	Compound
18.6 µM	26.7 µM	O=C(Nc1ccc(Cl)nc1)c1ccn(S(=O)(=O)c2ccc3[nH]ccc3c2)c1 [Compound 75, 1-((1H-indol-5-yl)sulfonyl)-N-(6-chloropyridin-3-yl)-1H-pyrrole-3-carboxamide]
> 100 µM	> 100 µM	CNC(=O)C1CCN(S(=O)(=O)c2cc(C(N)=O)n(C)c2)CC1 [Compound 32, 1-((5-carbamoyl-1-methyl-1H-pyrrol-3-yl)sulfonyl)-N-methylpiperidine-4-carboxamide]
17.9 µM	7.2 µM	Cc1cccc(C)c1NC(=O)c1ccn(S(=O)(=O)c2ccc3[nH]ccc3c2)c1 [Compound 51, 1-((1H-indol-5-yl)sulfonyl)-N-(2,6-dimethylphenyl)-1H-pyrrole-3-carboxamide]
10.7 µM	8.31 µM	CCCc1ccc(NC(=O)c2ccn(S(=O)(=O)c3ccc4[nH]ccc4c3)c2)cc1F [Compound 97, 1-((1H-indol-5-yl)sulfonyl)-N-(3-fluoro-4-propylphenyl)-1H-pyrrole-3-carboxamide]
6.72 µM	> 30 µM	N#Cc1ccc(NC(=O)c2ccn(S(=O)(=O)c3ccc4[nH]ccc4c3)n2)cc1 [Compound 79, 1-((1H-indol-5-yl)sulfonyl)-N-(4-cyanophenyl)-1H-pyrazole-3-carboxamide]
> 30 µM	> 30 µM	CCC(C)c1ccc(CCNC(=O)c2ccn(S(=O)(=O)c3ccc(C(C)(C)C)cc3)c2)cc1 (stereo not shown) [Compound 88, N-(4-(sec-butyl)phenethyl)-1-((4-(tert-butyl)phenyl)sulfonyl)-1H-pyrrole-3-carboxamide]
5.93 µM	10.5 µM	CC(C)(C)c1ccc(NC(=O)c2ccn(S(=O)(=O)c3ccc4[nH]ccc4c3)n2)cc1F [Compound 114, 1-((1H-indol-5-yl)sulfonyl)-N-(4-(tert-butyl)-3-fluorophenyl)-1H-pyrazole-3-carboxamide]
6.85 µM	11.4 µM	CC(C)Cc1ccc(NC(=O)c2ccn(S(=O)(=O)c3ccc4[nH]ccc4c3)n2)cc1 [Compound 111, 1-((1H-indol-5-yl)sulfonyl)-N-(4-isobutylphenyl)-1H-pyrazole-3-carboxamide]
> 30 µM	8.92 µM	O=C(Nc1ccc2c(c1)OCO2)c1ccn(S(=O)(=O)c2ccc3[nH]ccc3c2)c1 [Compound 104, 1-((1H-indol-5-yl)sulfonyl)-N-(benzo[d][1,3]dioxol-5-yl)-1H-pyrrole-3-carboxamide]
> 100 µM	> 100 µM	CCC(C)c1ccc(NC(=O)C2CCN(S(=O)(=O)c3cc(C(=O)N(C)C)n(C)c3)CC2)cc1 (stereo not shown) [Compound 27, N-(4-(sec-butyl)phenyl)-1-((5-(dimethylcarbamoyl)-1-methyl-1H-pyrrol-3-yl)sulfonyl)piperidine-4-carboxamide]
> 30 µM	> 30 µM	CC(C)c1ccccc1NC(=O)c1ccn(S(=O)(=O)c2ccc3[nH]ccc3c2)c1 [Compound 39, 1-((1H-indol-5-yl)sulfonyl)-N-(2-isopropylphenyl)-1H-pyrrole-3-carboxamide]
> 30 µM	> 30 µM	Cc1cccc(F)c1NC(=O)c1ccn(S(=O)(=O)c2ccc3[nH]ccc3c2)c1 [Compound 55, 1-((1H-indol-5-yl)sulfonyl)-N-(2-fluoro-6-methylphenyl)-1H-pyrrole-3-carboxamide]
> 30 µM	> 30 µM	COc1ccc(NC(=O)c2ccn(S(=O)(=O)c3ccc4[nH]ccc4c3)n2)cc1 [Compound 115, 1-((1H-indol-5-yl)sulfonyl)-N-(4-methoxyphenyl)-1H-pyrazole-3-carboxamide]
5.17 µM	4.53 µM	CC(C)(C)c1ccc(NC(=O)c2ccn(S(=O)(=O)c3ccc4[nH]ccc4c3)c2)cc1F [Compound 101, 1-((1H-indol-5-yl)sulfonyl)-N-(4-(tert-butyl)-3-fluorophenyl)-1H-pyrrole-3-carboxamide]
> 30 µM	> 30 µM	O=C(Nc1c(F)cccc1F)c1ccn(S(=O)(=O)c2ccc3[nH]ccc3c2)c1 [Compound 53, 1-((1H-indol-5-yl)sulfonyl)-N-(2,6-difluorophenyl)-1H-pyrrole-3-carboxamide]
> 100 µM	12.1 µM	CCC(C)c1ccc(NCC2CCN(S(=O)(=O)c3cc(C(N)=O)n(C)c3)CC2)cc1 (stereo not shown) [Compound 33, 4-((4-(((4-(sec-butyl)phenyl)amino)methyl)piperidin-1-yl)sulfonyl)-1-methyl-1H-pyrrole-2-carboxamide]
> 100 µM	24.7 µM	Cn1cc(S(=O)(=O)n2ccc(C(=O)Nc3ccc(C(F)(F)F)cc3)c2)cc1C(N)=O [Compound 20, 1-methyl-4-((3-((4-(trifluoromethyl)phenyl)carbamoyl)-1H-pyrrol-1-yl)sulfonyl)-1H-pyrrole-2-carboxamide]
> 30 µM	3.9 µM	O=C(Nc1ccc(F)nc1)c1ccn(S(=O)(=O)c2ccc3[nH]ccc3c2)c1 [Compound 74, 1-((1H-indol-5-yl)sulfonyl)-N-(6-fluoropyridin-3-yl)-1H-pyrrole-3-carboxamide]
> 100 µM	> 100 µM	Cc1ccc(NC(=O)N2CCN(S(=O)(=O)c3cc(C(N)=O)n(C)c3)CC2)cc1O [Compound 10, 4-((5-carbamoyl-1-methyl-1H-pyrrol-3-yl)sulfonyl)-N-(3-hydroxy-4-methylphenyl)piperazine-1-carboxamide]
13.2 µM	5.07 µM	CC(C)Cc1ccc(NC(=O)c2ccn(S(=O)(=O)c3ccc4[nH]ccc4c3)c2)cc1 [Compound 98, 1-((1H-indol-5-yl)sulfonyl)-N-(4-isobutylphenyl)-1H-pyrrole-3-carboxamide]
> 100 µM	> 100 µM	Cc1ccc(NC(=O)C2CCN(S(=O)(=O)c3ccc4c(c3)CCN4)CC2)cc1O [Compound 4, N-(3-hydroxy-4-methylphenyl)-1-(indolin-5-ylsulfonyl)piperidine-4-carboxamide]
> 100 µM	> 100 µM	Cn1cc(S(=O)(=O)N2CCC(C(=O)Nc3ccccc3)CC2)cc1C(N)=O [Compound 30, 1-((5-carbamoyl-1-methyl-1H-pyrrol-3-yl)sulfonyl)-N-phenylpiperidine-4-carboxamide]
> 30 µM	> 30 µM	CCC(C)c1ccc(NC(=O)c2ccn(S(=O)(=O)c3ccc(C(C)(C)C)cc3)c2)cc1 (stereo not shown) [Compound 91, N-(4-(sec-butyl)phenyl)-1-((4-(tert-butyl)phenyl)sulfonyl)-1H-pyrrole-3-carboxamide]
2.62 µM	11.2 µM	O=C(Nc1ccc(Cl)cn1)c1ccn(S(=O)(=O)c2ccc3[nH]ccc3c2)c1 [Compound 73]
> 30 µM	> 30 µM	CC(C)(C)c1ccc(S(=O)(=O)n2ccc(C(=O)NCCc3ccc(C(F)(F)F)cc3)c2)cc1 [Compound 90, 1-((4-(tert-butyl)phenyl)sulfonyl)-N-(4-(trifluoromethyl)phenethyl)-1H-pyrrole-3-carboxamide]
> 30 µM	9.33 µM	O=C(Nc1ccc(Cl)c(F)c1)c1ccn(S(=O)(=O)c2ccc3[nH]ccc3c2)n1 [Compound 81, 1-((1H-indol-5-yl)sulfonyl)-N-(4-chloro-3-fluorophenyl)-1H-pyrazole-3-carboxamide]
